The target of this assay is T1, BTK-GFP (Homo sapiens, UniProt Q06187+Q96SW2).
T1 construct: expressed in transfected cells; host or cells: HEK293A (Invitrogen R70507), lentiviral transduction with pLenti6-BTK-GFP-Ires-RFP, blasticidin selection
In words: BTK-GFP protein abundance flow cytometry assay in HEK293A cells. The format is cell-based. The conditions noted are these: HEK293A BTK-GFP-iresRFP cells, 24 h; for DC50: GFP signal by flow cytometry, concentration at which 50% maximal degradation was observed; for BTK deg Amax: % protein remaining at the concentration at which maximum degradation is seen. In short, it runs like this: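 HEK293A cells stably expressing bicistronic BTK-GFP-IRES-RFP (C-terminal GFP tag) via lentiviral vector. Degradation read by flow cytometry as loss of GFP signal after degrader treatment. DC50 is concentration giving 50% maximal degradation; Amax is % protein remaining at maximal degradation.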

T1 sequence (Q06187 whole entry): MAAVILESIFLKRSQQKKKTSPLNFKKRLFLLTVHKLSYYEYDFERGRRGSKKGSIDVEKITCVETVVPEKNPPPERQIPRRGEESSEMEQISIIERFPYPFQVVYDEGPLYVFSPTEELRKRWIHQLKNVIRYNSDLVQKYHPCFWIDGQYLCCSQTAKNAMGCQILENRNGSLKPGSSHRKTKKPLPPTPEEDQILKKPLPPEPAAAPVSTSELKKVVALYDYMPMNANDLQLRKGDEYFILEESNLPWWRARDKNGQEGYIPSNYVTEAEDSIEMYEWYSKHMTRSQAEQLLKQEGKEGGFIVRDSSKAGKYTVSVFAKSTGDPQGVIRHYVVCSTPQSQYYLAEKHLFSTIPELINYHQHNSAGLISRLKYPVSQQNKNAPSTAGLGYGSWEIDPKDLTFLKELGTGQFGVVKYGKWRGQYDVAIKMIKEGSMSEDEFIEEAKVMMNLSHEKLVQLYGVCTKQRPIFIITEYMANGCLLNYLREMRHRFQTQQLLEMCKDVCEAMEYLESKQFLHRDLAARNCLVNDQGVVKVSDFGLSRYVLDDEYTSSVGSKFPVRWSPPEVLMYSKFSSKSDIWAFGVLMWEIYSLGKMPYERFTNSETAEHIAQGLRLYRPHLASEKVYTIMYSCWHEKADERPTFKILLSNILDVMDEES
T1 sequence (Q96SW2 whole entry): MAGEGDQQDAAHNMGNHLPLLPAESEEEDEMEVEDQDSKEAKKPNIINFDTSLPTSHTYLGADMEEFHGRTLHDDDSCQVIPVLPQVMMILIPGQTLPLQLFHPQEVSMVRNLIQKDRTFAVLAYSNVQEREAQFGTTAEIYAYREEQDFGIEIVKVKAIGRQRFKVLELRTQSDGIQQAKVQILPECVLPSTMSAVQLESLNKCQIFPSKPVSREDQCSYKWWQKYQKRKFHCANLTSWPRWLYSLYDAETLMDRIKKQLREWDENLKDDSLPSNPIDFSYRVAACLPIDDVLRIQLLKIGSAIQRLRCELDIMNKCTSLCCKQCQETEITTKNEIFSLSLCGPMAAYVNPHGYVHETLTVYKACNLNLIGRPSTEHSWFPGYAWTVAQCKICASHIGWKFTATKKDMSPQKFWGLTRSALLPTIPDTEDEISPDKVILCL
T1 sequence (Q16531 whole entry partner): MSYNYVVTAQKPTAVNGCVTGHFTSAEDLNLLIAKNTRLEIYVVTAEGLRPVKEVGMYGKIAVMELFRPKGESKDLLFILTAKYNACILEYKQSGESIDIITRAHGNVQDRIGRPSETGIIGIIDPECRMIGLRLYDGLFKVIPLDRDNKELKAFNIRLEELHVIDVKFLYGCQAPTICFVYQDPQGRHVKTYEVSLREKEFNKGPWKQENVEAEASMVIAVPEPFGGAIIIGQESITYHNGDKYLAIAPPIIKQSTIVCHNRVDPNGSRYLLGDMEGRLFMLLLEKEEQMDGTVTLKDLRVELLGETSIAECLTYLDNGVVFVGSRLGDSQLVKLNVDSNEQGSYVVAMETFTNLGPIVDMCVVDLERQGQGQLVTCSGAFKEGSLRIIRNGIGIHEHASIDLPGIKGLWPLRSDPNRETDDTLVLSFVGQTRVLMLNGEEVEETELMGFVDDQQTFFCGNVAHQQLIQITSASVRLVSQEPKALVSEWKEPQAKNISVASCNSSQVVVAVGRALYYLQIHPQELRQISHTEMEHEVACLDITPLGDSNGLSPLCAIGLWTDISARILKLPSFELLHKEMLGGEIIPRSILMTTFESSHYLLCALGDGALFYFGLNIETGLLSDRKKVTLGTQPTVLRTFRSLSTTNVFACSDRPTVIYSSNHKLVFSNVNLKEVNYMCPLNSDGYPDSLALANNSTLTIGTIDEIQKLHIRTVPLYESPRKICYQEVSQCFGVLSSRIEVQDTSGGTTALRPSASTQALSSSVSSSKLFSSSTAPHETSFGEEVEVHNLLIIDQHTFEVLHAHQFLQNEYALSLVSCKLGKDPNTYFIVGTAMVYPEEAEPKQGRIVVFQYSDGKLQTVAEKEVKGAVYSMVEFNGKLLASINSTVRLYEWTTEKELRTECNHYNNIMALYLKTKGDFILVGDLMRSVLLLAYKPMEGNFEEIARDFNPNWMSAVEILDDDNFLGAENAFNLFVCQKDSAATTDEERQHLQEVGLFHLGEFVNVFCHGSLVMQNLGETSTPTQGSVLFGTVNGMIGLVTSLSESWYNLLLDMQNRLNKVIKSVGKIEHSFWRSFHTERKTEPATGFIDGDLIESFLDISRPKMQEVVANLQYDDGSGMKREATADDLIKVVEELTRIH

Turning to `COc1ccc(C(=O)N2CCC3(CCN(Cc4ccc(-c5cc6c(-c7cc(F)cc(NC(=O)c8ccc(C(C)(C)O)cc8F)c7C)ncnc6[nH]5)cc4)CC3)CC2)cc1N1CCC(=O)NC1=O` [Compound 9, N-(3-(6-(4-((9-(3-(2,4-Dioxotetrahydropyrimidin-1(2H)-yl)-4-methoxybenzoyl)-3,9-diazaspiro[5.5]undecan-3-yl)methyl)phenyl)-7H-pyrrolo[2.3-d]pyrimidin-4-yl)-5-fluoro-2-methylphenyl)-2-fluoro-4-(2-hydroxypropan-2-yl)benzamide], the DC50 is 2.1 nM and the “BTK deg Amax” value stood at 4.5%.

In the case of `Cc1ccc(C(=O)N(C)CCCCCNCc2ccc(-c3cc4c(-c5cc(F)cc(NC(=O)c6ccc(C(C)(C)O)cc6F)c5C)ncnc4[nH]3)cc2)cc1N1CCC(=O)NC1=O` [Compound 30, 3-(2,4-Dioxotetrahydropyrimidin-1(2H)-yl)-N-(5-((4-(4-(5-fluoro-3-(2-fluoro-4-(2-hydroxypropan-2-yl)benzamido)-2-methylphenyl)-7H-pyrrolo[2,3-d]pyrimidin-6-yl)benzyl)amino)pentyl)-N,4-dimethylbenzamide], half-maximal degradation (DC50) was put at 47.1 nM and the “BTK deg Amax” value was determined as 5.4%.

As for `COc1ccc(C(=O)N2CCN(CCCCNCc3ccc(-c4cc5c(-c6cc(F)cc(NC(=O)c7ccc(C(C)(C)O)cc7F)c6C)ncnc5[nH]4)cc3)CC2)cc1N1CCC(=O)NC1=O` [Compound 40, N-(3-(6-(4-(((4-(4-(3-(2,4-dioxotetrahydropyrimidin-1(2H)-yl)-4-methoxybenzoyl)piperazin-1-yl)butyl)amino)methyl)phenyl)-7H-pyrrolo[2,3-d]pyrimidin-4-yl)-5-fluoro-2-methylphenyl)-2-fluoro-4-(2-hydroxypropan-2-yl)benzamide], half-maximal degradation (DC50) was put at 53.2 nM and the “BTK deg Amax” value is on record as 4.6%.

For the molecule `CCOc1ccc(C(=O)N2CCC3(CCN(Cc4ccc(-c5cc6c(-c7cc(F)cc(NC(=O)c8ccc(C(C)(C)O)cc8F)c7C)ncnc6[nH]5)cc4)CC3)CC2)cc1N1CCC(=O)NC1=O` [Compound 4, N-(3-(6-(4-((9-(3-(2,4-Dioxotetrahydropyrimidin-1(2H)-yl)-4-ethoxybenzoyl)-3,9-diazaspiro[5.5]undecan-3-yl)methyl)phenyl)-7H-pyrrolo[2,3-d]pyrimidin-4-yl)-5-fluoro-2-methylphenyl)-2-fluoro-4-(2-hydroxypropan-2-yl)benzamide], half-maximal degradation (DC50) was put at 3.7 nM and the “BTK deg Amax” value was determined as 7.8%.

For the origin of these results see patent US12441733B2, “Substituted 2,4-dioxotetrahydropyrimidines as intermediates in the synthesis of bruton's tyrosine kinase inhibitors” (Novartis AG, priority 2018, dated 2025).
